# In article PMC9227351, “A Novel Antihypertensive Pentapeptide Identified in Quinoa Bran Globulin Hydrolysates: Purification, In Silico Characterization, Molecular Docking with ACE and Stability against Different Food-Processing Conditions” (Nutrients, 2022):
# Entries after “also recorded” stand apart in the source; their conditions may differ. Ends that are not written are not given here.
# Tests used:
# [1] = proline-rich literature peptides; cited from earlier work
# Description: The main reason was the structural characteri ...
# ACE [2] = details: literature peptides; ref 13 (GYGYNY), 20 (SSYYPFK), 34 (NMAINPSKENLCSTFCK); read-out: IC50 of ACE-inhibitory activity; cited from earlier work
# Description: Obviously, SAPPP was a pentapeptide of high content of Pro. […] Some special acid residues including aromatic amino acids (Phe, Trp and Tyr) and Pro in the C-terminal tripeptides can tightly bind with active sites of ACE and show ... || Peptides can bind to the key binding pockets of ACE (S1, S1′, and S2′), and disturb the combination of ACE and the […] (angiotensin-I or bradykinin), thereby showing a competitive inhibition pattern. […] Moreover, the docking T-Score of SAPPP (8.88) was higher than the required value (6.0).
# ACE [3] = experiment: Stability against simulated gastrointestinal digestion, read out as ACE-inhibitory activity; assay type: in vitro ADME; details: peptide 1 mg/mL; pepsin pH 2.0 37 °C 90 min, then trypsin/bile salt pH 6.8 37 °C 180 min; activity before versus after digestion; p > 0.05
# Protocol: As per the same procedure described by Jimsheena and Gowda, inhibition activity on ACE was evaluated by comparing the quantity of produced hippuric acid before and after the addition of the peptides. IC50 value was calculated from the regression equation of ACE inhibition percentage versus different concentrations of the sample, and defined as the concentration of sample when ACE-inhibitory activity was 50%.
# Following the method of Sun et al., mixtures of trypsin (0.45 g), pig bile salt (3 g) and NaHCO3 (6.25 g) dissolved in 100 mL of dH2O (pH 6.8) were used to simulate intestinal fluid, whereas pepsin (40 mg) and NaCl (0.877 g) dissolved in 100 mL of dH2O (pH 2.0) were used as gastric fluid. Peptide solutions (dissolved in ultrapure water, 1 mg/mL) were incubated at 37 °C in a stirring bath (140 r/min) for 15 min; then, the simulated gastric fluid was added (gastric fluid: peptide solution = 1:10 v/v) and incubated at 37 °C (140 r/min) for 90 min. Then, the reaction solution was adjusted to pH 6.8 with Na2HPO4. The simulated intestinal fluid (the fluid: peptide solution = 1:10, v/v) was added and stirred (140 r/min) at 37 °C for 180 min. All the reaction solutions were heated at 100 °C for 8 min to inactivate the enzyme. Stability was calculated by comparing the ACE-inhibitory activities of the peptides before and after the digestion.
Substance,Stability against gastrointestinal digestion [1],IC50 (ACE [2]) [µM],Stability of ACE-inhibitory activity during simulated gastrointestinal digestion (ACE [3])
ELHPQ [proline-rich peptide identified in canary seed],excellent stability,,
GYGYNY,,384,
KPVPR [proline-rich peptide identified in canary seed],excellent stability,,
LHPQ [proline-rich peptide identified in canary seed],excellent stability,,
NMAINPSKENLCSTFCK,,129,
"SAPPP [SAPPP, Ser-Ala-Pro-Pro-Pro]",,,resistant; also recorded: relatively stable
SSYYPFK,excellent stability,91.8,
